Data reported in patent publication US10363253B2, “Combination products for the treatment of RSV” (priority 2016, dated 2019).
Where two headings read alike, the source gives them in different places.

Tested on: rgRSV224, an engineered RSV strain that encodes for eGFP
Format: cell-based
Experimental: To evaluate their combined antiviral effect against RSV, in vitro combination studies were performed with JNJ-53718678 (“compound A”) and various compounds with different mechanisms-of-action (“compound B”). In short, 9 concentrations of Compound A were combined with 6 or 7 concentrations of a certain compound B. HeLa cells were infected with rgRSV224, an engineered RSV strain that encodes for eGFP (Hallak L K, Spillmann D, Collins P L, Peeples M E. Glycosaminoglycan sulfation requirements for respiratory syncytial virus infection; Journal of Virology (2000), 74(22), 10508-13), in the presence of various concentrations of compound A and compound B individually or in combination.
Compound stock solutions were 5 mM in 100% DMSO, with following exceptions: ribavirin, 20 mM; A 60444, 10 mM; CR9501, 141 μM in PBS; palivizumab, 156 μM in PBS; MDT 637, 100 μM in methanol. First, the compounds were serially diluted in 3-fold dilution series in DMSO; CR9501 and palivizumab were serially diluted in cell culture medium, and MDT 637 in methanol. The concentration series were diluted 100-fold in cell culture medium to achieve a combination matrix. 10 μL of these compound solutions were transferred to black 384-well clear-bottom tissue-culture treated plates. Next, 10 μL of a […] HeLa cell suspension was added to achieve 3000 cells per well. Finally, 10 μL of diluted virus stock was added to achieve an MOI of 1. The final DMSO concentration of all wells was 0.5% DMSO, except for the MDT 637 experiment where it was 0.25% DMSO+0.25% methanol. Each combination of compound concentrations was tested in 4 replicates on 3 separate plates, resulting in a total of 12 replicates. The plates were incubated for 3 days at 37° C. in a humidified atmosphere at 5% CO2. The GFP signal was measured with PerkinElmer EnVision apparatus using a 405 nm filter.
The method of Harbron (Statistics in Medicine, 2010, DOI:10.1002/sim3916) was used to assess synergy. Using the Loewe definition, two compounds are characterized as being additive, synergistic or antagonistic by:
where d1 and d2 represent the doses of the two compounds that in combination produce an effect y, and Dy,1 and Dy,2 represent the doses of the two compounds that produce the same effect, y, when administered as a monotherapy. A 3PL model (3-parameter log-logistic model) was used for the monotherapy dose-response data, where the baseline response was fixed at one.
Following Harbron's approach, the following models were fitted to the data: • “Additive”: assuming no interaction between the two compounds • “Uniform”: assuming a constant interaction index τ across all dose combinations • “Linear A”: assuming the interaction index linearly depends on the log 10 dose of compound A: z=τ1+τ2 log 10(dA) • “Separate A”: assuming the interaction index τ takes a separate value for each dose of compound A The latter two models were also considered for compound B: • “Linear B”: assuming the interaction index linearly τ depends on the log 10 dose of compound B: τ=τ1+τ2 log 10(dB) • “Separate B”: assuming the interaction index τ takes a separate value for each dose of compound B

Question: For `Cc1cnc(N2CC3(CCOCC3)C2)c(C(=O)Nc2ccc(C(=O)N3CCc4cc(C(=O)Nc5c(C)cccc5F)sc4-c4ccccc43)cc2)c1` [pulmocide compound, N-(2-fluoro-6-methylphenyl)-6-(4-(5-methyl-2-(7-oxa-2-azaspiro[3.5]nonan-2-yl)nicotinamido)benzoyl)-5,6-dihydro-4H-benzo[b]thieno[2,3-d]azepine-2-carboxamide, reference compound], which “normalized GFP signal” value is on record?
Answer: 1.04

Question: What about the “normalized GFP signal” value (A = 0, B (pulmocide compound) = 0.058) of the same compound?
Answer: 0.99

Question: And the “normalized GFP signal” value (A = 0, B (pulmocide compound) = 0.17)?
Answer: 0.99

Question: And the “normalized GFP signal” value (A = 0, B (pulmocide compound) = 1.6)?
Answer: 0.91

Question: And the “normalized GFP signal” value (A = 0, B (pulmocide compound) = 4.7)?
Answer: 0.20

Question: What about the “normalized GFP signal” value (A = 0, B (pulmocide compound) = 14) of the same compound?
Answer: 0.02

Question: And the “normalized GFP signal” value (A = 0, B (pulmocide compound) = 42)?
Answer: 0.02

Question: Which “normalized GFP signal” value (A = 0, B (ribavirin) = 69) does the source give for `NC(=O)c1ncn([C@@H]2O[C@H](CO)[C@@H](O)[C@H]2O)n1` [ribavirin, 1-β-D-ribofuranosyl-1H-1,2,4-triazole-3-carboxamide, reference compound] here?
Answer: 1.00

Question: What about the “normalized GFP signal” value (A = 0, B (ribavirin) = 206) of the same compound?
Answer: 0.98

Question: And the “normalized GFP signal” value (A = 0, B (ribavirin) = 617)?
Answer: 0.98

Question: What about the “normalized GFP signal” value (A = 0, B (ribavirin) = 1852) of the same compound?
Answer: 0.97

Question: And the “normalized GFP signal” value (A = 0, B (ribavirin) = 5556)?
Answer: 0.94

Question: What about the “normalized GFP signal” value (A = 0, B (ribavirin) = 16667) of the same compound?
Answer: 0.83

Question: What about the “normalized GFP signal” value (A = 0, B (ribavirin) = 50000) of the same compound?
Answer: 0.13

Question: Which results are given for “palivizumab: monoclonal antibody CAS 188039-54-5”?
Answer: normalized GFP signal (A = 0, B (palivizumab) = 0.0061): 1.05; normalized GFP signal (A = 0, B (palivizumab) = 0.018): 1.01; normalized GFP signal (A = 0, B (palivizumab) = 0.055): 0.97; normalized GFP signal (A = 0, B (palivizumab) = 0.165): 1.01; normalized GFP signal (A = 0, B (palivizumab) = 0.494): 0.89; normalized GFP signal (A = 0, B (palivizumab) = 1.482): 0.33; normalized GFP signal (A = 0, B (palivizumab) = 4.447): 0.06
